# Laboratory results: patent US20080287396A1, “Phosphonated Fluoroquinolones, Antibacterial Analogs Thereof, and Methods for the Prevention and Treatment of Bone and Joint Infections” (TARGANTA THERAPEUTICA INC., priority 2005, published 2008)
# Entries after “also recorded” stand apart in the source; their conditions may differ.
# Tests used:
# [1] = Bone powder binding, fluorometric detection; settings: 1 mg/ml compound, bone meal powder 10 mg/ml in PBS, 37° C., 1 h
# Summary of the method: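 LC/MS method: 100 μM compound in 0.1 M Tris-HCl pH 7, 0.15 M NaCl shaken 10 min with or without ground rat tibia, centrifuged, unbound compound measured in supernatant. Fluorometric method: 1 mg/ml compound in 10 mg/ml bone meal/PBS, 1 h at 37 °C, pellet washed. Supernatant fluoroquinolone read at 280/465 nm; bound amount taken as input minus recovered.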
# S. aureus ATCC 13709 = assay: Prophylactic model of bone infection in rats; format: in vivo, rat; settings: for prophylactic effect in rat model of bone infection, in words: Table 4 and FIGS. 6-8, doses as in Table 4
# Summary of the method: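 Female CD rats (n=5/group) given intra-tibial 5% sodium morrhuate then S. aureus (ca. 5×10^5 CFU/rat), hole sealed with dental cement. Prodrugs given as single IV bolus in 0.9% saline at various times before infection; parent at molar equivalent dose. Tibiae harvested 24 h postinfection; Log CFU/g bone, detection limit 2 Log CFU/g.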
SMILES,Binding to bone (%) Fluorescence [1] [%],"bacterial titer compared with untreated group (S. aureus ATCC 13709; 15.8 mg/kg IV 5, 10, 15 and 20 days before infection (FIG. 6))","Measured bacterial titer (Log CFU/g of bone) Test compound (S. aureus ATCC 13709; 15.8 mg/kg IV, 2 days prior to infection, 24 h postinfection)","bacterial titer compared with untreated group (S. aureus ATCC 13709; 32 mg/kg IV 7, 14, 21 and 28 days prior to infection (FIG. 7))","prophylactic effect in rat model of bone infection, in words (S. aureus ATCC 13709)",bacterial titer compared with untreated group (S. aureus ATCC 13709; 17.3 mg/Kg IV 48 h prior to infection (FIG. 8)),"Measured bacterial titer (Log CFU/g of bone) Test compound (S. aureus ATCC 13709; 20 mg/kg IV, 3 days prior to infection)"
"COc1c(N2C[C@@H]3CCCN[C@@H]3C2)c(F)cc2c(=O)c(C(=O)OCC(=O)NC(P(=O)(O)O)P(=O)(O)O)cn(C3CC3)c12 [Compound 52, (1,1-Bisphosphonomethylcarbamoyl)methyl 1-cyclopropyl-6-fluoro-1,4-dihydro-7-((4aS,7aS)-octahydropyrrolo[3,4-b]pyridin-6-yl)-8-methoxy-4-oxoquinoline-3-carboxylate]",98.7,significant (p<0.05) decrease in bacterial titer,2.29 ± 0.30 Log CFU/g of bone,significant decrease in bacterial titer,efficient prophylactic effect,–,–
"COc1c(N2CCNC(C)C2)c(F)cc2c(=O)c(C(=O)OCC(=O)NC(P(=O)(O)O)P(=O)(O)O)cn(C3CC3)c12 (stereo not drawn) [Compound 54, (1,1-Bisphosphonomethylcarbamoyl)methyl 7-(3-methylpiperazin-1-yl)-1-cyclopropyl-6-fluoro-1,4-dihydro-8-methoxy-4-oxoquinoline-3-carboxylate]",91,–,–,–,efficient prophylactic effect,significant (p-value ≦0.0002) decrease in bacterial titer; also recorded: nearly sterile bone,2.96 ± 0.69 Log CFU/g of bone
